Experimental data from PubChem BioAssay AID248 (DTP/NCI, 2004).
Several values for one entry are separate records, joined by “and”; a condition that tells them apart may be missing. Equal entries are not always repeated. Toxic doses and inconclusive results are not listed. Cut-off read from the data, not from the text of the source: active = T/C of 150% or more; inactive = T/C below 125%.

Tested on: L1210 leukemia ip in BDF1 mice, survival T/C
Assay: NCI In Vivo Anticancer Drug Screen. Data for tumor model L1210 Leukemia (intraperitoneal) in B6D2F1 (BDF1) mice
Conditions: endpoint: mean survival time, higher = longer survival
Outline: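 Ratio derived from survival: compound-dosed mice over vehicle-dosed mice, all bearing a transplantable tumor.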

[1] = dose: 100.0 mg/kg/injection, schedule: Q01DX001 (ip), vehicle: saline with Tween-80
[2] = dose: 200.0 mg/kg/injection, schedule: Q01DX001 (ip), vehicle: saline with Tween-80
[3] = dose: 400.0 mg/kg/injection, schedule: Q01DX001 (ip), vehicle: saline with Tween-80
[4] = dose: 100.0 mg/kg/injection, schedule: Q01DX001 (ip), vehicle: saline
[5] = dose: 100.0 mg/kg/injection, schedule: Q01DX009 (ip), vehicle: saline
[6] = dose: 100.0 mg/kg/injection, schedule: Q04DX003 (ip), vehicle: saline
[7] = dose: 200.0 mg/kg/injection, schedule: Q01DX001 (ip), vehicle: saline
[8] = dose: 200.0 mg/kg/injection, schedule: Q01DX009 (ip), vehicle: saline
[9] = dose: 200.0 mg/kg/injection, schedule: Q04DX003 (ip), vehicle: saline
[10] = dose: 400.0 mg/kg/injection, schedule: Q01DX001 (ip), vehicle: saline
[11] = dose: 400.0 mg/kg/injection, schedule: Q04DX003 (ip), vehicle: saline
[12] = dose: 100.0 mg/kg/injection, schedule: Q01DX001 (ip), vehicle: carboxymethylcellulose (CMC)
[13] = dose: 200.0 mg/kg/injection, schedule: Q01DX001 (ip), vehicle: carboxymethylcellulose (CMC)
[14] = dose: 400.0 mg/kg/injection, schedule: Q01DX001 (ip), vehicle: carboxymethylcellulose (CMC)
[15] = dose: 50.0 mg/kg/injection, schedule: Q01DX001 (ip), vehicle: saline
[16] = dose: 100.0 mg/kg/injection, schedule: Q01DX009 (ip), vehicle: saline with Tween-80
[17] = dose: 200.0 mg/kg/injection, schedule: Q01DX009 (ip), vehicle: saline with Tween-80
[18] = dose: 400.0 mg/kg/injection, schedule: Q01DX009 (ip), vehicle: saline with Tween-80
[19] = dose: 100.0 mg/kg/injection, schedule: Q01DX009 (ip), vehicle: Klucel (hydroxypropylcellulose) (HPC)
[20] = dose: 100.0 mg/kg/injection, schedule: Q04DX003 (ip), vehicle: Klucel (hydroxypropylcellulose) (HPC)
[21] = dose: 200.0 mg/kg/injection, schedule: Q01DX009 (ip), vehicle: Klucel (hydroxypropylcellulose) (HPC)
[22] = dose: 200.0 mg/kg/injection, schedule: Q04DX003 (ip), vehicle: Klucel (hydroxypropylcellulose) (HPC)
[23] = dose: 400.0 mg/kg/injection, schedule: Q04DX003 (ip), vehicle: Klucel (hydroxypropylcellulose) (HPC)

Measured: T/C

CC(=O)NC1C(OCc2ccccc2)OC(COC(c2ccccc2)(c2ccccc2)c2ccccc2)C(OS(=O)(=O)c2ccc(C)cc2)C1OCc1ccccc1 (configuration not stated)
inactive: [1] 100 % of control | [2] 86 % of control | [3] 100 % of control

CC(NC(=O)OCc1ccccc1)C(=O)ON1C(=O)CCC1=O (configuration not stated)
inactive: [4] 97 % of control | [5] 95 % of control | [6] 96 % of control | [7] 102 % of control | [8] 93 % of control | [9] 94 % of control | [10] 97 % of control | dose: 400.0 mg/kg/injection, schedule: Q01DX009 (ip), vehicle: saline 88 % of control | [11] 96 % of control

Nc1ccc([N+](=O)[O-])c2ccccc12
inactive: dose: 50.0 mg/kg/injection, schedule: Q01DX001 (ip), vehicle: carboxymethylcellulose (CMC) 87 % of control | [12] 93 % of control | [13] 98 % of control | [14] 87 % of control

O=C(O)CO
inactive: [15] 94 % of control | [4] 97 % of control | [16] 107 % of control | [7] 108 % of control | [17] 100 % of control | [18] 93 % of control

CCCCCCCCCCCCCCCC[As]1c2ccccc2Nc2ccccc21
inactive: dose: 100.0 mg/kg/injection, schedule: Q04DX002 (ip), vehicle: saline with Tween-80 86 % of control | dose: 200.0 mg/kg/injection, schedule: Q04DX002 (ip), vehicle: saline with Tween-80 89 % of control | dose: 400.0 mg/kg/injection, schedule: Q04DX002 (ip), vehicle: saline with Tween-80 86 % of control

Nc1ncnc(N2CCOCC2)n1
inactive: [12] 96 % of control | [13] 107 % of control | [14] 100 % of control

C[N+](C)(C)c1ccc(/C=C2\C=Cc3ccccc32)cc1
inactive: dose: 15.0 mg/kg/injection, schedule: Q01DX001 (ip), vehicle: carboxymethylcellulose (CMC) 108 % of control | dose: 30.0 mg/kg/injection, schedule: Q01DX001 (ip), vehicle: carboxymethylcellulose (CMC) 102 % of control

O=S(Cc1ccccc1)Cc1ccccc1
inactive: [15] 110 % of control | [4] 110 % of control | [19] 103 % of control | [20] 90 % of control | [7] 103 % of control | [21] 100 % of control | [22] 97 % of control | [10] 100 % of control | dose: 400.0 mg/kg/injection, schedule: Q01DX009 (ip), vehicle: Klucel (hydroxypropylcellulose) (HPC) 102 % of control | [23] 100 % of control

CCOC(=O)COCc1ccccc1
inactive: dose: 25.0 mg/kg/injection, schedule: Q01DX009 (ip), vehicle: saline sonified 98 % of control | dose: 50.0 mg/kg/injection, schedule: Q01DX009 (ip), vehicle: saline sonified 93 % of control | dose: 100.0 mg/kg/injection, schedule: Q01DX009 (ip), vehicle: saline sonified 98 % of control | dose: 100.0 mg/kg/injection, schedule: Q04DX003 (ip), vehicle: saline sonified 97 % of control | dose: 176.0 mg/kg/injection, schedule: Q04DX003 (ip), vehicle: saline sonified 98 % of control | dose: 200.0 mg/kg/injection, schedule: Q04DX003 (ip), vehicle: saline sonified 90 % of control | dose: 264.0 mg/kg/injection, schedule: Q04DX003 (ip), vehicle: saline sonified 91 % of control | dose: 400.0 mg/kg/injection, schedule: Q04DX003 (ip), vehicle: saline sonified 104 % of control

O=C1/C(=C/c2ccco2)CC2CCCCC12 (configuration not stated)
inactive: dose: 50.0 mg/kg/injection, schedule: Q01DX009 (ip), vehicle: saline 95 % of control | [5] 102 % of control | [6] 88 % of control | [8] 90 % of control | [9] 102 % of control

O=C(/C=C/c1ccc2c(c1)OCO2)c1ccc(Cl)cc1
inactive: dose: 50.0 mg/kg/injection, schedule: Q01DX009 (ip), vehicle: saline with Tween-80 97 % of control | [16] 95 % of control | [17] 96 % of control

CC1(C)N=C(N)N=C(N)N1c1cccc(OCc2cccc(N)c2)c1
inactive: dose: 5.0 mg/kg/injection, schedule: Q01DX001 (ip), vehicle: saline 98 % of control | dose: 10.0 mg/kg/injection, schedule: Q01DX001 (ip), vehicle: saline 101 % of control | dose: 20.0 mg/kg/injection, schedule: Q01DX001 (ip), vehicle: saline 96 % of control | dose: 40.0 mg/kg/injection, schedule: Q01DX001 (ip), vehicle: saline 93 % of control | dose: 80.0 mg/kg/injection, schedule: Q01DX001 (ip), vehicle: saline 113 % of control

Cc1cc2nc(Cc3nc4cc(C)c(C)cc4[nH]3)[nH]c2cc1C
inactive: dose: 50.0 mg/kg/injection, schedule: Q01DX Z (ip), vehicle: saline 105 % of control | [4] 92 % of control | dose: 100.0 mg/kg/injection, schedule: Q01DX Z (ip), vehicle: saline 95 % of control | [6] 100 % of control | [7] 93 % of control | dose: 200.0 mg/kg/injection, schedule: Q01DX Z (ip), vehicle: saline 100 % of control | [9] 92 % of control | [10] 90 % of control | dose: 400.0 mg/kg/injection, schedule: Q01DX Z (ip), vehicle: saline 97 % of control | [11] 86 % of control

O=C(Nc1ccc(C(=O)O)cc1)Nc1cccc(Cl)c1
inactive: dose: 25.0 mg/kg/injection, schedule: Q04DX002 (ip), vehicle: saline 92 % of control | dose: 50.0 mg/kg/injection, schedule: Q04DX002 (ip), vehicle: saline 95 % of control | dose: 100.0 mg/kg/injection, schedule: Q04DX002 (ip), vehicle: saline 100 % of control and 89 % of control

NC(=S)N/N=C/c1c(Cl)n(C(=O)c2ccc(Cl)cc2)c2ccccc12
inactive: dose: 50.0 mg/kg/injection, schedule: Q04DX002 (ip), vehicle: Klucel (hydroxypropylcellulose) (HPC) 91 % of control | dose: 100.0 mg/kg/injection, schedule: Q04DX002 (ip), vehicle: Klucel (hydroxypropylcellulose) (HPC) 87 % of control | dose: 200.0 mg/kg/injection, schedule: Q04DX002 (ip), vehicle: Klucel (hydroxypropylcellulose) (HPC) 91 % of control

COP1(=O)CC=C(C)C1 (configuration not stated)
inactive: [4] 98 % of control | [7] 98 % of control | [10] 106 % of control

CCNC(=O)C1C2CCC(C2)C1C(=O)NCC (configuration not stated)
inactive: [6] 104 % of control | [9] 87 % of control | [11] 96 % of control

Nc1nc(=O)n(C2OC(CO)C(O)C2O)c2scnc12 (configuration not stated)
inactive: dose: 50.0 mg/kg/injection, schedule: Q01DX005 (ip), vehicle: saline 107 % of control | dose: 100.0 mg/kg/injection, schedule: Q01DX005 (ip), vehicle: saline 107 % of control

O=C(O)CCOc1ccc(Cl)cc1
inactive: dose: 100.0 mg/kg/injection, schedule: Q04DX003 (ip), vehicle: saline with Tween-80 106 % of control | dose: 200.0 mg/kg/injection, schedule: Q04DX003 (ip), vehicle: saline with Tween-80 103 % of control | dose: 400.0 mg/kg/injection, schedule: Q04DX003 (ip), vehicle: saline with Tween-80 95 % of control

Clc1ccc(C2=Nc3c(Cl)ncnc3SC2)cc1
inactive: [1] 106 % of control | [16] 94 % of control | [2] 101 % of control | [17] 99 % of control | [3] 98 % of control | [18] 94 % of control

CN(C)C(=S)SCN1CCCCC1
inactive: [19] 103 % of control | [20] 96 % of control | [21] 97 % of control | [22] 104 % of control | [23] 107 % of control

O=C1Cc2cc3c(cc2C=C2CCCN12)OCO3
inactive: dose: 50.0 mg/kg/injection, schedule: Q01DX001 (ip), vehicle: Klucel (hydroxypropylcellulose) (HPC) 103 % of control | dose: 100.0 mg/kg/injection, schedule: Q01DX001 (ip), vehicle: Klucel (hydroxypropylcellulose) (HPC) 97 % of control | dose: 200.0 mg/kg/injection, schedule: Q01DX001 (ip), vehicle: Klucel (hydroxypropylcellulose) (HPC) 101 % of control
